Assay results taken from patent US20160152831A1, “YELLOW COLORANT FOR HAIR DYEING, COMPOSITION FOR HAIR DYEING, AND HAIR DYEING METHOD” (HODOGAYA CHEMICAL CO., LTD., priority 2013, published 2016).

Experiments:
[1] = Shampooing-fastness test of dyed hair; assay type: physicochemical, human; settings: for Color Difference (ΔE*): before vs after test; for Color Difference (ΔE*) / Residual Ratio %: 5 cycles; for Residual Ratio %: dyeing density after test to before test
Description: The test sample with Yellow 29 prepared in Example 1 was tested according to the shampooing-fastness test mentioned below, and the dyeing density (K/Sd) and color difference (ΔE*) before and after the test were determined. In the Table, the residual ratio (%) means the ratio of the dyeing density after the test to the dyeing density before the test.
The test sample was subjected to a cycle operation of (1) shampooing followed by (2) treatment as mentioned below, repeatedly five times in all, and then spontaneously dried at room temperature (about 20° C.).
Shampoo liquid: aqueous 5% sodium laurylsulfate solution
Bath ratio: 1/10 (mass of shampooing liquid relative to 1 g mass of dyed hair)
Processing temperature: 45° C.
Processing time: 20 minutes
Post-treatment: rinsing with water
Treatment liquid: aqueous 5% trimethylstearylammonium chloride solution
Bath ratio: 1/10 (mass of treatment liquid relative to 1 g mass of dyed hair)

[2] = Light-fastness test of dyed hair (xenon fade meter); assay type: physicochemical, human; settings: 330 W/m^2, 20 hours; for Color Difference (ΔE*): before vs after test; for Residual Ratio %: dyeing density after test to before test
Description: A composition for hair dyeing having a pH of 6 was prepared according to the compounding formation as shown in Table 6 by using Yellow 29 as the dye. By using the thus-prepared composition for hair dyeing, a test sample was prepared according to the same method as in Example 1. The resultant test sample was exposed to white light at an irradiation dose of 330 W/m^2 for 20 hours, by using a xenon long-life fade meter light-fastness tester Suga Test Instrument, FAL-25AX-HC-BEC Model), and the dyeing density (K/Sd) and the color values (L*, a*, b*) before and after the test, and the color difference (ΔE*) were determined. The light-fastness test was carried out under the condition where the temperature of the test sample could be from 60 to 66° C.

Row | Color Difference (ΔE*) [1] | shampooing-fastness ([1]; compared with Yellow 87) | Residual Ratio % [1] [%] | light-fastness [2] | Color Difference (ΔE*) [2] | Residual Ratio % [2] [%] | SMILES
1 | 6.6 | extremely excellent | 82 | excellent | 2.8 | 89 | Cc1ccc(N(C)/N=C/C2=[N+](C)c3ccccc3C2(C)C)cc1 [Yellow 29, C. I. Basic Yellow 29]
2 | – | – | – | low | 10.2 | 98 | Cc1nn(-c2ccccc2)c(O)c1/N=N/c1cccc([N+](C)(C)C)c1.[Cl-] [Yellow 57, C.I. Basic Yellow 57, reference compound]
3 | 21.8 | – | 33 | – | – | – | CN(/N=C\c1cc[n+](C)cc1)c1ccccc1 [Yellow 87, C.I. Basic Yellow 87, reference compound]
